24 molecules from patent publication US8268827B2, “Pyridazinone derivatives as PARP inhibitors” (Istituto di Ricerche di Biologia Molecolare P. Angeletti …, priority 2007, dated 2012) can be followed below.

Assay [1] deals with BRCA-1 silenced HeLa cells (HeLa shBRCA1-GFP). In words: Proliferation assay in BRCA-1 silenced HeLa cells. It counts as cell-based. The conditions noted are these: Homo sapiens; BRCA1 silenced HeLa cells, 168 hours; read-out: CC50 in the BRCA1 silenced HeLa cells. Put shortly:
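HeLa cells with lentiviral shRNA BRCA1 knockdown (>80%), compared with control-vector HeLa, seeded at 300 cells/well. Compound exposure lasted 168 h at 37° C. Viability was read as resazurin-to-resorufin fluorescence (ex 550/em 590 nm).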

The target in a further assay is T1, PARP-1 (Homo sapiens, UniProt P09874).
T1 construct: purchased Trevigen 4668-500-01
T1 sequence (P09874 whole entry): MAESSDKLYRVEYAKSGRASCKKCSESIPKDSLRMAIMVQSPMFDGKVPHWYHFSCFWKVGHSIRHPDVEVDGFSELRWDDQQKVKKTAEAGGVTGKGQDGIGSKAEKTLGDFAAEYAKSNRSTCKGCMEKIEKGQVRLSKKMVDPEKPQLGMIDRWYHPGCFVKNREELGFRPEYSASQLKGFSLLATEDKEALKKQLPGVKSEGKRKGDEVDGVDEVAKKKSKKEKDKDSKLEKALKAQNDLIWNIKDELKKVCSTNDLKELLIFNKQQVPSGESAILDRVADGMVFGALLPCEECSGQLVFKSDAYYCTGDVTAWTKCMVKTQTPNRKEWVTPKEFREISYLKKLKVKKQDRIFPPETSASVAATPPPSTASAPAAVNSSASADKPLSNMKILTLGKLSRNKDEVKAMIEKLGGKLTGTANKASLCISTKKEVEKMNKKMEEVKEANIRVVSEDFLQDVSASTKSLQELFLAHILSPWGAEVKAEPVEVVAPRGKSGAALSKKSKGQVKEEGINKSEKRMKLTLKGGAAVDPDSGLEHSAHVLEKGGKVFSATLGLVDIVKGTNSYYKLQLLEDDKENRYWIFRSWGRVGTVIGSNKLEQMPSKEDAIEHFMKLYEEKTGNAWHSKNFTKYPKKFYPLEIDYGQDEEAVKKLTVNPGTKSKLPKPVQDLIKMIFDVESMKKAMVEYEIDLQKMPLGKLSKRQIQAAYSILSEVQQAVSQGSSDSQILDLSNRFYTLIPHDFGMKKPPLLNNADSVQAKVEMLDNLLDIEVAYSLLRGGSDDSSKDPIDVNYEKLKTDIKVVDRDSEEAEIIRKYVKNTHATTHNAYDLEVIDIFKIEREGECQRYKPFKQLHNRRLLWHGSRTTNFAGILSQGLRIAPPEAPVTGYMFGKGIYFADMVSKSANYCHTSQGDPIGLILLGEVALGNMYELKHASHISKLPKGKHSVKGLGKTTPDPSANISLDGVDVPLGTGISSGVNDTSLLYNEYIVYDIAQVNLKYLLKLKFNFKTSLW
In words: PARP-1 SPA assay. The assay is classed as biochemical. The protocol:
Assay buffer: 100 mM Tris pH 8, 4 mM MgCl2, 4 mM Spermine, 200 mM KCl, 0.04% Nonidet P-40.
Nicotinamide-adenine dinucleotide (NAD)/DNA Mix: [^3H-NAD] (250 uCi/ml, 0.4 ul, Perkin-Elmer NET-443H), NAD (1.5 mM, 0.05 ul, SIGMA N-1511), Biotinylated-NAD (250 uM, 0.03 ul, Trevigen 4670-500-01), Activated calf thymus (1 mg/ml, 0.05 ul, Amersham Biosciences 27-4575), H2O (to 10 ul).
Developing Mix: Streptavidin SPA beads (5 mg/ml, Amersham Biosciences RPNQ 0007) dissolved in 500 mM EDTA.
The reaction is performed in 96-well microplate with a final volume of 50 uL/well. Add 5 ul 5% DMSO/compound solution, add enzyme mix (35 ul), start the reaction by adding NAD/DNA mix (10 uL) and incubate for 2 hrs at RT. Stop the reaction by adding developing mix (25 ul) and incubate 15 min at RT. Measure using a Packard TOP COUNT instrument.

Counter-ions that a name gives are not always drawn.

What is called CC50 is the concentration giving 50% cytotoxicity. The IC50 is the concentration at which inhibition is half-maximal. Read a low IC50 as inhibition by little substance. As to `O=C(c1cc(Cc2cc(C(F)(F)F)c(=O)[nH]n2)ccc1F)N1CC(=O)N2CCCC[C@H]2C1` (single isomer, unassigned) [92 (ZZ1)], the half-maximal cytotoxic concentration (CC50) in assay [1] was less than 5 µM. The IC50 against PARP-1 was less than 0.005 µM.
In the same order, the values of `Cc1c(Cc2ccc(F)c(C(=O)N3CCN(c4cc(C(F)(F)F)ccn4)C(=O)C3)c2)n[nH]c(=O)c1C` [Example 61, 3-[4-Fluoro-3-({3-oxo-4-[4-(trifluoromethyl)pyridin-2-yl]piperazin-1-yl}carbonyl)benzyl]-4,5-dimethyl-6-oxo-1,6-dihydropyridazin-1-ium trifluoroacetate] are 0.05 to 0.5 µM and 0.005 to 0.025 µM.
With `Cc1c(Cc2ccc(F)c(C(=O)N3CCN(C4CCOCC4)C(=O)C3)c2)n[nH]c(=O)c1C(F)(F)F` [Example 146, 3-(4-Fluoro-3-{[3-oxo-4-(tetrahydro-2H-pyran-4-yl)piperazin-1-yl]carbonyl}benzyl)-4-methyl-6-oxo-5-(trifluoromethyl)-1,6-dihydropyridazin-1-ium trifluoroacetate], the CC50 in assay [1] is less than 0.05 µM. The IC50 at PARP-1 lay in the range of 0.005 to 0.025 µM.
In the case of `CCc1cc(Cc2ccc(F)c(C(=O)N3CCN(C4CCCOC4)C(=O)C3)c2)n[nH]c1=O` (stereo not drawn) [Example 133, 4-ethyl-6-(4-fluoro-3-{[3-oxo-4-(tetrahydro-2H-pyran-3-yl)piperazin-1-yl]carbonyl}benzyl)-3-oxo-2,3-dihydropyridazin-1-ium trifluoroacetate], the CC50 in assay [1] lay within 0.05 to 0.5 µM. This molecule showed a 50% inhibitory concentration (IC50) on PARP-1 of 0.005 to 0.025 µM.
In the same order, the values of `Cc1c(Cc2ccc(F)c(C(=O)N3CCN([C@@H]4CCCC[C@H]4c4ccccc4)C(=O)C3)c2)n[nH]c(=O)c1C` [Example 67, 6-[4-Fluoro-3-({3-oxo-4-[(1R,2S)-2-phenylcyclohexyl]piperazin-1-yl}carbonyl)benzyl]-4,5-dimethyl-3-oxo-2,3-dihydropyridazin-1-ium trifluoroacetate] are 0.05 to 0.5 µM and 0.005 to 0.025 µM.
In the same order, the values of `Cc1c(Cc2ccc(F)c(C(=O)N3CCN(CC4CCCc5ccccc54)C(=O)C3)c2)n[nH]c(=O)c1C` (stereo not drawn) [Example 53, 6-(4-Fluoro-3-{[3-oxo-4-(1,2,3,4-tetrahydronaphthalen-1-ylmethyl)piperazin-1-yl]carbonyl}benzyl)-4,5-dimethyl-3-oxo-2,3-dihydropyridazin-1-ium trifluoroacetate] are 0.05 to 0.5 µM and 0.005 to 0.025 µM.
For `CCc1cc(Cc2ccc(F)c(C(=O)N3CCN(CC(F)(F)F)C(=O)C3)c2)n[nH]c1=O` [Example 134, 4-ethyl-6-(4-fluoro-3-{[3-oxo-4-(2,2,2-trifluoroethyl)piperazin-1-yl]carbonyl}benzyl)-3-oxo-2,3-dihydropyridazin-1-ium trifluoroacetate], in assay [1], the CC50 was less than 5 µM. The molecule further returned an IC50 against PARP-1 of 0.005 to 0.025 µM.
For the molecule `Cc1c(Cc2ccc(F)c(C(=O)N3CCN(c4ccc(C#N)cc4)C(=O)C3)c2)n[nH]c(=O)c1C` [Example 94, 3-(3-{[4-(4-Cyanophenyl)-3-oxopiperazin-1-yl]carbonyl}-4-fluorobenzyl)-4,5-dimethyl-6-oxo-1,6-dihydropyridazin-1-ium trifluoroacetate], the CC50 in assay [1] was 0.05 to 0.5 µM. The molecule further registered an IC50 at PARP-1 of less than 0.005 µM.
On to `Cc1c(Cc2ccc(F)c(C(=O)N3CCN(c4ccccn4)C(=O)C3)c2)n[nH]c(=O)c1C` [Example 31, 3-{4-Fluoro-3-[(3-oxo-4-pyridin-2-ylpiperazin-1-yl)carbonyl]benzyl}-4,5-dimethyl-6-oxo-1,6-dihydropyridazin-1-ium trifluoroacetate], for which the CC50 in assay [1] was less than 5 µM. Further, the IC50 against PARP-1 lay in the range of 0.005 to 0.025 µM.
For `Cc1c(Cc2ccc(F)c(C(=O)N3CCN(C4CCOCC4)C(=O)C3)c2)n[nH]c(=O)c1C` [Example 120, 6-(4-fluoro-3-{[3-oxo-4-(tetrahydro-2H-pyran-4-yl)piperazin-1-yl]carbonyl}benzyl)-4,5-dimethyl-3-oxo-2,3-dihydropyridazin-1-ium trifluoroacetate], the 50% cytotoxic concentration (CC50) in assay [1] was less than 5 µM. This molecule showed an IC50 on PARP-1 of 0.005 to 0.025 µM.
In the same order, the values of `Cc1c(Cc2ccc(F)c(C(=O)N3CCN(C4CCC(F)(F)C4)C(=O)C3)c2)n[nH]c(=O)c1C` (stereo not drawn) [Example 49, 6-(3-{[4-(3,3-Difluorocyclopentyl)-3-oxopiperazin-1-yl]carbonyl}-4-fluorobenzyl)-4,5-dimethyl-3-oxo-2,3-dihydropyridazin-1-ium trifluoroacetate] are less than 0.05 µM and less than 0.005 µM.
In the same order, the values of `Cc1c(Cc2ccc(F)c(C(=O)N3CC(=O)N(C4CCCC4)[C@@H](C)C3)c2)n[nH]c(=O)c1C` [Example 114, 6-(3-{[(3S)-4-cyclopentyl-3-methyl-5-oxopiperazin-1-yl]carbonyl}-4-fluorobenzyl)-4,5-dimethylpyridazin-3(2H)-one] are less than 0.05 µM and 0.005 to 0.025 µM.
In the same order, the values of `CCOCCN1CCN(C(=O)c2cc(Cc3n[nH]c(=O)c(C)c3C)ccc2F)CC1=O` [Example 171, 6-(3-{[4-(2-Ethoxyethyl)-3-oxopiperazin-1-yl]carbonyl}-4-fluorobenzyl)-4,5-dimethylpyridazin-3(2H)-one] are less than 5 µM and less than 0.005 µM.
With `Cc1c(Cc2ccc(F)c(C(=O)N3CCN(C4CCCCC4)C(=O)C3C)c2)n[nH]c(=O)c1C` (stereo not drawn) [Example 35, 6-{3-[(4-Cyclohexyl-2-methyl-3-oxopiperazin-1-yl)carbonyl]-4-fluorobenzyl}-4,5-dimethyl-3-oxo-2,3-dihydropyridazin-1-ium trifluoroacetate], in assay [1], the CC50 was less than 5 µM. The molecule further registered an IC50 against PARP-1 of 0.005 to 0.025 µM.
For `Cc1c(Cc2ccc(F)c(C(=O)N3CCN(c4cccnc4)C(=O)C3)c2)n[nH]c(=O)c1C` [Example 38, 6-{4-Fluoro-3-[(3-oxo-4-pyridin-3-ylpiperazin-1-yl)carbonyl]benzyl}-4,5-dimethylpyridazin-3(2H)-one], in that order: 0.05 to 0.5 µM and less than 0.005 µM.
On to `Cc1c(Cc2ccc(F)c(C(=O)N3CC(=O)N(c4ccccc4)[C@@H](C)C3)c2)n[nH]c(=O)c1C` (single isomer, unassigned) [78 (LL4A)], for which, in assay [1], the 50% cytotoxic concentration (CC50) fell in the range of 0.05 to 0.5 µM. Besides, on PARP-1, the half-inhibitory concentration (IC50) lay within 0.005 to 0.025 µM.
As for `CC[C@H]1CN(C(=O)c2cc(Cc3n[nH]c(=O)c(C)c3C)ccc2F)CC(=O)N1C1CCC1` [Example 181, 6-(3-{[(3S)-4-Cyclobutyl-3-ethyl-5-oxopiperazin-1-yl]carbonyl}-4-fluorobenzyl)-4,5-dimethylpyridazin-3(2H)-one], the CC50 in assay [1] was less than 5 µM. Besides, the half-maximal inhibitory concentration (IC50) against PARP-1 was in the range of 0.005 to 0.025 µM.
For `Cc1c(Cc2ccc(F)c(C(=O)N3CCN(CC(F)(F)F)C(=O)C3)c2)n[nH]c(=O)c1C` [Example 72, 6-(4-Fluoro-3-{[3-oxo-4-(2,2,2-trifluoroethyl)piperazin-1-yl]carbonyl}benzyl)-4,5-dimethyl-3-oxo-2,3-dihydropyridazin-1-ium trifluoroacetate], in that order: 0.05 to 0.5 µM and 0.005 to 0.025 µM.
For `Cc1c(Cc2ccc(F)c(C(=O)N3CC(=O)N(c4ccccc4)[C@H](C)C3)c2)n[nH]c(=O)c1C` (single isomer, unassigned) [Example 78 (LL4B)], in that order: less than 0.05 µM and less than 0.005 µM.
In the same order, the values of `Cc1c(Cc2ccc(F)c(C(=O)N3CC(=O)N(c4ccc(F)cc4)C(C)C3)c2)n[nH]c(=O)c1C` (racemic) [Example 79, 3-{4-Fluoro-3-[4-(4-fluoro-phenyl)-3-methyl-5-oxo-piperazine-1-carbonyl]-benzyl}-4,5-dimethyl-6-oxo-1,6-dihydro-pyridazin-1-ium trifluoroacetate] are less than 0.05 µM and less than 0.005 µM.
Consider `Cc1c(Cc2ccc(F)c(C(=O)N3CCN(CCOC(C)C)C(=O)C3)c2)n[nH]c(=O)c1C` [Example 172, 6-(4-Fluoro-3-{[4-(2-isopropoxyethyl)-3-oxopiperazin-1-yl]carbonyl}benzyl)-4,5-dimethylpyridazin-3(2H)-one], for which the cytotoxic concentration (CC50) in assay [1] is less than 5 µM. The molecule further returned an IC50 on PARP-1 of 0.005 to 0.025 µM.
Consider `Cc1c(Cc2ccc(F)c(C(=O)N3CCN(C4CC(F)(F)C4)C(=O)C3)c2)n[nH]c(=O)c1C` [Example 55, 6-(3-{[4-(3,3-Difluorocyclobutyl)-3-oxopiperazin-1-yl]carbonyl}-4-fluorobenzyl)-4,5-dimethyl-3-oxo-2,3-dihydropyridazin-1-ium trifluoroacetate], for which the CC50 in assay [1] lay within 0.05 to 0.5 µM. Further, at PARP-1, the IC50 was in the range of 0.005 to 0.025 µM.
For `CCc1c(Cc2ccc(F)c(C(=O)N3CCN(C4CCCCC4)C(=O)C3)c2)n[nH]c(=O)c1C(F)(F)F` [Example 39, 6-{3-[(4-Cyclohexyl-3-oxopiperazin-1-yl)carbonyl]-4-fluorobenzyl}-5-ethyl-4-(trifluoromethyl)pyridazin-3(2H)-one trifluoroacetate], in that order: less than 0.05 µM and less than 0.005 µM.
In the same order, the values of `Cc1c(Cc2ccc(F)c(C(=O)N3CC(=O)N4CCCCC4C3)c2)n[nH]c(=O)c1C` (stereo not drawn) [Example 32, 6-{4-Fluoro-3-[(4-oxooctahydro-2H-pyrido[1,2-a]pyrazin-2-yl)carbonyl]benzyl}-4,5-dimethyl-3-oxo-2,3-dihydropyridazin-1-ium trifluoroacetate] are less than 0.05 µM and 0.005 to 0.025 µM.
